According to patent US20160158200A1, “Combinations of Hepatitis C Virus Inhibitors” (priority 2013, published 2016):

System: HCV genotype-1a variant with glutamine 30 changed to glutamate in the NS5A protein
Assay type: cell-based
Conditions: test compound titrated with BMS-790052 fixed at 200 nM; genotype 1a Q30E replicon
Method in brief: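 Synergy was assessed by combining several fixed amounts of an NS5A-targeting compound with a titration of the second compound of interest.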

| Compound | Fold-Synergistic 1a (Q30E) [fold] |
| --- | --- |
| CC(C)(C)[C@H](NC(=O)C1(N2CCC(F)(F)CC2)COC1)c1nc(-c2ccc(-c3ccc(-c4c[nH]c([C@@H](NC(=O)C5(N6CCC(F)(F)CC6)COC5)C(C)(C)C)n4)cc3)cc2)c[nH]1 [Compound W-63] | >100 |
| CC(C)C(NC(=O)C1(N2CCC(F)(F)CC2)COC1)c1nc(-c2ccc(-c3ccc(-c4c[nH]c(C(NC(=O)C5(N6CCC(F)(F)CC6)COC5)C(C)C)n4)cc3)cc2)c[nH]1 (centres unmarked) [Compound W-64] | >100 |
| CC(C)C(NC(=O)C(=O)N(CC(F)(F)F)C(C)C)c1nc(-c2ccc(-c3ccc(-c4c[nH]c(C(NC(=O)C(=O)N(CC(F)(F)F)C(C)C)C(C)C)n4)cc3)cc2)c[nH]1 (centres unmarked) [Compound W-65] | >100 |
| CC(C)N(CC(F)(F)F)C(=O)C(=O)N[C@H](c1nc(-c2ccc(-c3ccc(-c4c[nH]c([C@@H](NC(=O)C(=O)N(CC(F)(F)F)C(C)C)C(C)(C)C)n4)cc3)cc2)c[nH]1)C(C)(C)C [Compound W-66] | >100 |
| CC1CC(C(=O)NC(c2nc(-c3ccc(-c4ccc(-c5c[nH]c(C(NC(=O)C6CC(C)CN6C(=O)OC(C)(C)C)C6(C)CC6)n5)cc4)cc3)c[nH]2)C2(C)CC2)N(C(=O)OC(C)(C)C)C1 (centres unmarked) [Compound W-71] | >100 |
| CC(C)C(NC(=O)C1C2CC2CN1C(=O)OC(C)(C)C)c1nc(-c2ccc(-c3ccc(-c4c[nH]c(C(NC(=O)C5C6CC6CN5C(=O)OC(C)(C)C)C(C)C)n4)cc3)cc2)c[nH]1 (centres unmarked) [Compound W-74] | >100 |
| CC(C)(C)OC(=O)N1CC2CC2C1C(=O)NC(c1nc(-c2ccc(-c3ccc(-c4c[nH]c(C(NC(=O)C5C6CC6CN5C(=O)OC(C)(C)C)C(C)(C)C)n4)cc3)cc2)c[nH]1)C(C)(C)C (centres unmarked) [Compound W-79] | >100 |
| CC(C)(C)OC(=O)N1C2CCC1(C(=O)N[C@H](c1nc(-c3ccc(-c4ccc(-c5c[nH]c([C@@H](NC(=O)C67CCC(CC6)N7C(=O)OC(C)(C)C)C(C)(C)C)n5)cc4)cc3)c[nH]1)C(C)(C)C)CC2 [Compound W-85] | >100 |
| CC(C)(C)OC(=O)N1CCCC1C(=O)N[C@H](c1nc(-c2ccc(-c3ccc(-c4c[nH]c([C@@H](NC(=O)C5CCCN5C(=O)OC(C)(C)C)C(C)(C)C)n4)cc3)cc2)c[nH]1)C(C)(C)C (some centres unmarked) [Compound W-86] | >100 |
| CC(C)(C)OC(=O)N1CCCC1C(=O)NC(c1nc(-c2ccc(-c3ccc(-c4c[nH]c(C(NC(=O)C5CCCN5C(=O)OC(C)(C)C)C(C)(C)C)n4)cc3)cc2)c[nH]1)C(C)(C)C (centres unmarked) [Compound W-87] | >100 |
| CC(C)(C)OC(=O)N1CC(F)(F)C[C@H]1C(=O)N[C@H](c1nc(-c2ccc(-c3ccc(-c4c[nH]c([C@@H](NC(=O)[C@@H]5CC(F)(F)CN5C(=O)OC(C)(C)C)C(C)(C)C)n4)cc3)cc2)c[nH]1)C(C)(C)C [Compound W-88] | >100 |
| C=C1C[C@@H](C(=O)N[C@H](c2nc(-c3ccc(-c4ccc(-c5c[nH]c([C@@H](NC(=O)[C@@H]6CC(=C)CN6C(=O)OC(C)(C)C)C(C)C)n5)cc4)cc3)c[nH]2)C(C)C)N(C(=O)OC(C)(C)C)C1 [Compound W-89] | >100 |
| C=C1C[C@@H](C(=O)N[C@H](c2nc(-c3ccc(-c4ccc(-c5c[nH]c([C@@H](NC(=O)[C@@H]6CC(=C)CN6C(=O)OC(C)(C)C)C(C)(C)C)n5)cc4)cc3)c[nH]2)C(C)(C)C)N(C(=O)OC(C)(C)C)C1 [Compound W-91] | >100 |
| CC(C)(C)[C@H](NC(=O)C12CCC(CC1)N2)c1nc(-c2ccc(-c3ccc(-c4c[nH]c([C@@H](NC(=O)C56CCC(CC5)N6)C(C)(C)C)n4)cc3)cc2)c[nH]1.Cl.Cl.Cl.Cl [Compound W-92] | >10 |
| CC1(C)C[C@@H](C(=O)N[C@H](c2nc(-c3ccc(-c4ccc(-c5c[nH]c([C@@H](NC(=O)[C@@H]6CC(C)(C)CN6C(=O)OC(C)(C)C)C(C)(C)C)n5)cc4)cc3)c[nH]2)C(C)(C)C)N(C(=O)OC(C)(C)C)C1 [Compound W-93] | >100 |
| CC(C)(C)OC(=O)N1CC2(CC2)C[C@H]1C(=O)N[C@H](c1nc(-c2ccc(-c3ccc(-c4c[nH]c([C@@H](NC(=O)[C@@H]5CC6(CC6)CN5C(=O)OC(C)(C)C)C(C)(C)C)n4)cc3)cc2)c[nH]1)C(C)(C)C [Compound W-94] | >100 |
| CC(C)C(NC(=O)C1CC(O)CN1C(=O)OC(C)(C)C)c1nc(-c2ccc(-c3ccc(-c4c[nH]c(C(NC(=O)C5CC(O)CN5C(=O)OC(C)(C)C)C(C)C)n4)cc3)cc2)c[nH]1 (centres unmarked) [Compound W-100] | >100 |
| CC(C)(C)[C@H](NC(=O)[C@@H]1C[C@@H](F)CN1)c1nc(-c2ccc(-c3ccc(-c4c[nH]c([C@@H](NC(=O)[C@@H]5C[C@@H](F)CN5)C(C)(C)C)n4)cc3)cc2)c[nH]1 [Compound W-101, (2S,2'S,4R,4′R)—N,N′-((1S,1′S)-(4,4′-([1,1′-biphenyl]-4,4′-diyl)bis(1H-imidazole-4,2-diyl))bis(2,2-dimethylpropane-1,1-diyl))bis(4-fluoropyrrolidine-2-carboxamide)] | >10 |

| Compound | Fold-Synergistic 1a (Q30E) [fold] |
| --- | --- |
| CC(=O)N1C[C@H](F)C[C@H]1C(=O)N[C@H](c1nc(-c2ccc(-c3ccc(-c4c[nH]c([C@@H](NC(=O)[C@@H]5C[C@@H](F)CN5C(C)=O)C(C)(C)C)n4)cc3)cc2)c[nH]1)C(C)(C)C [Compound W-102] | >10 |
| COCCC(=O)N1C[C@H](F)C[C@H]1C(=O)N[C@H](c1nc(-c2ccc(-c3ccc(-c4c[nH]c([C@@H](NC(=O)[C@@H]5C[C@@H](F)CN5C(=O)CCOC)C(C)(C)C)n4)cc3)cc2)c[nH]1)C(C)(C)C [Compound W-103] | >100 |
| CC(C)(C)C(NC(=O)C1CC(F)CN1C(=O)OC1CCCC1)c1nc(-c2ccc(-c3ccc(-c4c[nH]c(C(NC(=O)C5CC(F)CN5C(=O)OC5CCCC5)C(C)(C)C)n4)cc3)cc2)c[nH]1 (centres unmarked) [Compound W-111] | >100 |
| COC(=O)N1C2CCC1(C(=O)N[C@H](c1nc(-c3ccc(-c4ccc(-c5c[nH]c([C@@H](NC(=O)C67CCC(CC6)N7C(=O)OC)C(C)(C)C)n5)cc4)cc3)c[nH]1)C(C)(C)C)CC2.O=C(O)C(F)(F)F.O=C(O)C(F)(F)F [Compound W-117] | >100 |
| CC(C)OC(=O)N1C2CCC1(C(=O)N[C@H](c1nc(-c3ccc(-c4ccc(-c5c[nH]c([C@@H](NC(=O)C67CCC(CC6)N7C(=O)OC(C)C)C(C)(C)C)n5)cc4)cc3)c[nH]1)C(C)(C)C)CC2.O=C(O)C(F)(F)F.O=C(O)C(F)(F)F [Compound W-118] | >100 |
| CC1(OC(=O)N2CC(F)CC2C(=O)NC(c2nc(-c3ccc(-c4ccc(-c5c[nH]c(C(NC(=O)C6CC(F)CN6C(=O)OC6(C)CC6)C(C)(C)C)n5)cc4)cc3)c[nH]2)C(C)(C)C)CC1 (centres unmarked) [Compound W-119] | >100 |
| CC1(C)CC(C(=O)N[C@H](c2nc(-c3ccc(-c4ccc(-c5c[nH]c([C@@H](NC(=O)C6CCOC(C)(C)C6)C(C)(C)C)n5)cc4)cc3)c[nH]2)C(C)(C)C)CCO1 (some centres unmarked) [Compound W-122] | >100 |
| CC(C)(C)[C@H](NC(=O)C1CCOCC1)c1nc(-c2ccc(-c3ccc(-c4c[nH]c([C@@H](NC(=O)C5CCOCC5)C(C)(C)C)n4)cc3)cc2)c[nH]1 [Compound W-123] | >100 |
| COC(=O)C1(C(=O)N[C@H](c2nc(-c3ccc(-c4ccc(-c5c[nH]c([C@@H](NC(=O)C6(C(=O)OC)CC6)C(C)(C)C)n5)cc4)cc3)c[nH]2)C(C)(C)C)CC1 [Compound W-124] | >100 |
| CC(CO)(CO)C(=O)N[C@H](c1nc(-c2ccc(-c3ccc(-c4c[nH]c([C@@H](NC(=O)C(C)(CO)CO)C(C)(C)C)n4)cc3)cc2)c[nH]1)C(C)(C)C [Compound W-125] | >100 |
| CCOC(=O)C(C)(C)C(=O)N[C@H](c1nc(-c2ccc(-c3ccc(-c4c[nH]c([C@@H](NC(=O)C(C)(C)C(=O)OCC)C(C)(C)C)n4)cc3)cc2)c[nH]1)C(C)(C)C.O=C(O)C(F)(F)F.O=C(O)C(F)(F)F [Compound W-126] | >100 |
| COC(=O)C12CCC(C(=O)N[C@H](c3nc(-c4ccc(-c5ccc(-c6c[nH]c([C@@H](NC(=O)C78CCC(C(=O)OC)(CC7)CC8)C(C)(C)C)n6)cc5)cc4)c[nH]3)C(C)(C)C)(CC1)CC2 [Compound W-127] | >100 |
| CC(C)(C)[C@H](NC(=O)C12CCC(O)(CC1)CC2)c1nc(-c2ccc(-c3ccc(-c4c[nH]c([C@@H](NC(=O)C56CCC(O)(CC5)CC6)C(C)(C)C)n4)cc3)cc2)c[nH]1 [Compound W-128] | >100 |
| CC(C)(C)[C@H](NC(=O)C1CCOC1)c1nc(-c2ccc(-c3ccc(-c4c[nH]c([C@@H](NC(=O)C5CCOC5)C(C)(C)C)n4)cc3)cc2)c[nH]1 (some centres unmarked) [Compound W-129] | >10 |
| CC1(C(=O)N[C@H](c2nc(-c3ccc(-c4ccc(-c5c[nH]c([C@@H](NC(=O)C6(C)CCOCC6)C(C)(C)C)n5)cc4)cc3)c[nH]2)C(C)(C)C)CCOCC1 [Compound W-130] | >100 |
| CC(C)(C)[C@H](NC(=O)C1CCCOC1)c1nc(-c2ccc(-c3ccc(-c4c[nH]c([C@@H](NC(=O)C5CCCOC5)C(C)(C)C)n4)cc3)cc2)c[nH]1 (some centres unmarked) [Compound W-131] | >100 |
| CC(C)(C)OC(=O)NC1(C(=O)N[C@H](c2nc(-c3ccc(-c4ccc(-c5c[nH]c([C@@H](NC(=O)C6(NC(=O)OC(C)(C)C)CCOCC6)C(C)(C)C)n5)cc4)cc3)c[nH]2)C(C)(C)C)CCOCC1 [Compound W-132] | >100 |
